Experimental data: US11807625B2, “Capsid inhibitors for the prevention of HIV” (Gilead Sciences, Inc., priority 2019, dated 2023)
Read-outs that look alike come from different tables or passages of the source.

Test: PK of compound of Formula (Ia) after single subcutaneous dose of solution formulations in Wistar Han rats
Format: in vivo
Settings: male, Wistar Han, rat, plasma, sc, 50 mg/kg, mean ± SD
Protocol: Formulations containing the compound of Formula (Ia), or a pharmaceutically acceptable salt thereof, were prepared as solutions and optionally administered subcutaneously or intramuscularly to rats, rabbits, and/or dogs.
(§1) A solution of about 400 mg/mL of the compound of Formula (Ia) having 19.14 w/w % water, 40.66 w/w % PEG 300, 35.20 w/w % of a sodium salt of a compound of Formula (Ia), and 5.00% ethanol was prepared. The solution was administered subcutaneously to male Wistar Han rats at a dose level of about 50 mg/kg and dose volume of 0.125 mL/kg and the pharmacokinetic (PK) profile was determined.
as §1, with “500” for “400”, “16.64” for “19.14”, “35.36” for “40.66”, “43.00” for “35.20”, “0.1” for “0.125”
(§2) A solution of about 400 mg/mL of the compound of Formula (Ia) having 17.00 w/w % water, 36.40 w/w % PEG 300, 35.20 w/w % of a sodium salt of a compound of Formula (Ia), 5.00 w/w % ethanol, and 6.40 w/w % poloxamer 188 was prepared. The solution was administered subcutaneously to male beagle dogs at a dose level of about 12 mg/kg and male Wistar Han rats at a dose level of about 50 mg/kg. The pharmacokinetic profiles were determined, and the results for dogs are summarized in Table and Table, while the results for rats are summarized in Table and Table below.
as §2, with “500” for “400”, “14.06” for “17.00”, “30.12” for “36.40”
A solution of about 300 mg/mL of the compound of Formula (Ia) having 23.33 w/w % water, 48.99 w/w % PEG 300, 26.47 w/w % of a sodium salt of a compound of Formula (Ia), and 1.21 w/w % poloxamer 188 was prepared. The solution was administered subcutaneously to male beagle dogs at a dose level of about 6 mg/kg and male Wistar Han rats at a dose level of about 50 mg/kg. The pharmacokinetic profiles were determined, and the results for dogs are summarized in Table and Table, while the results for rats are summarized in Table and Table below.
as §2, with “18.80” for “17.00”, “40.25” for “36.40”, “34.38” for “35.20”, “1.57” for “6.40”
as §2, with “500” for “400”, “16.29” for “17.00”, “34.88” for “36.40”, “41.92” for “35.20”, “1.91” for “6.40”
A solution of about 400 mg/mL of the compound of Formula (Ia) having 20.90 w/w % water, 44.72 w/w % PEG 300, and 34.38 w/w % of a sodium salt of a compound of Formula (Ia) was prepared. […]

Compound: CC(C)(C#Cc1ccc(-c2ccc(Cl)c3c(NS(C)(=O)=O)nn(CC(F)(F)F)c23)c([C@H](Cc2cc(F)cc(F)c2)NC(=O)Cn2nc(C(F)(F)F)c3c2C(F)(F)[C@@H]2C[C@H]32)n1)S(C)(=O)=O [compound of Formula (Ia)]
- AUC(0-t) (male Wistar Han rats, single SC 50 mg/kg, 400 mg/mL solution Y (water, PEG 300), n = 4, read-out: AUC0-336 h): 31.6 ± 10.9 µM·h
- AUC(0-t) (male Wistar Han rats, single SC 50 mg/kg, 400 mg/mL solution Y (water, PEG 300), n = 4, read-out: AUC0-672 h): 74.9 ± 33.7 µM·h
- AUC(0-t) (male Wistar Han rats, single SC 50 mg/kg, 400 mg/mL solution Y (water, PEG 300), n = 4, read-out: AUC0-1008 h): 128 ± 64 µM·h
- AUC(0-t) (male Wistar Han rats, single SC 50 mg/kg, 400 mg/mL solution Y (water, PEG 300), n = 4, read-out: AUC0-1344 h): 182 ± 100 µM·h
- AUC(0-t) (male Wistar Han rats, single SC 50 mg/kg, 400 mg/mL solution Y (water, PEG 300), n = 4, read-out: AUC0-1680 h): 230 ± 132 µM·h
- AUC(0-t) (male Wistar Han rats, single SC 50 mg/kg, 400 mg/mL solution Y (water, PEG 300), n = 4, read-out: AUC0-2352 h): 312 ± 181 µM·h
- AUC(0-t) (male Wistar Han rats, single SC 50 mg/kg, 400 mg/mL solution Y (water, PEG 300), n = 4, read-out: AUC0-3024 h): 389 ± 229 µM·h
- AUC(0-t) (male Wistar Han rats, single SC 50 mg/kg, 400 mg/mL solution Y (water, PEG 300), n = 4, read-out: AUC0-3696 h): 454 ± 255 µM·h
- AUC(0-t) (male Wistar Han rats, single SC 50 mg/kg, 400 mg/mL solution Z (3.13% poloxamer 188), n = 4, read-out: AUC0-24 h): 2.37 ± 1.6 µM·h
- AUC(0-t) (male Wistar Han rats, single SC 50 mg/kg, 400 mg/mL solution Z (3.13% poloxamer 188), n = 4, read-out: AUC0-168 h): 23.9 ± 12.4 µM·h
- AUC(0-t) (male Wistar Han rats, single SC 50 mg/kg, 400 mg/mL solution Z (3.13% poloxamer 188), n = 4, read-out: AUC0-336 h): 49.4 ± 25.4 µM·h
- AUC(0-t) (male Wistar Han rats, single SC 50 mg/kg, 400 mg/mL solution Z (3.13% poloxamer 188), n = 4, read-out: AUC0-672 h): 106 ± 49 µM·h
- AUC(0-t) (male Wistar Han rats, single SC 50 mg/kg, 400 mg/mL solution Z (3.13% poloxamer 188), n = 4, read-out: AUC0-1008 h): 163 ± 68 µM·h
- AUC(0-t) (male Wistar Han rats, single SC 50 mg/kg, 400 mg/mL solution Z (3.13% poloxamer 188), n = 4, read-out: AUC0-1344 h): 214 ± 85 µM·h
- AUC(0-t) (male Wistar Han rats, single SC 50 mg/kg, 400 mg/mL solution Z (3.13% poloxamer 188), n = 4, read-out: AUC0-1680 h): 259 ± 99 µM·h
- AUC(0-t) (male Wistar Han rats, single SC 50 mg/kg, 400 mg/mL solution Z (3.13% poloxamer 188), n = 4, read-out: AUC0-2352 h): 344 ± 117 µM·h
- AUC(0-t) (male Wistar Han rats, single SC 50 mg/kg, 400 mg/mL solution Z (3.13% poloxamer 188), n = 4, read-out: AUC0-3024 h): 435 ± 129 µM·h
- AUC(0-t) (male Wistar Han rats, single SC 50 mg/kg, 400 mg/mL solution Z (3.13% poloxamer 188), n = 4, read-out: AUC0-3696 h): 544 ± 156 µM·h
- AUC(0-t) (male Wistar Han rats, single SC 50 mg/kg, 500 mg/mL solution X (5.00% ethanol, 1.91% poloxamer 188), n = 3, read-out: AUC0-24 h): 2.82 ± 0.53 µM·h
- AUC(0-t) (male Wistar Han rats, single SC 50 mg/kg, 500 mg/mL solution X (5.00% ethanol, 1.91% poloxamer 188), n = 3, read-out: AUC0-168 h): 30.1 ± 5.1 µM·h
- AUC(0-t) (male Wistar Han rats, single SC 50 mg/kg, 500 mg/mL solution X (5.00% ethanol, 1.91% poloxamer 188), n = 3, read-out: AUC0-336 h): 64.5 ± 11.4 µM·h
- AUC(0-t) (male Wistar Han rats, single SC 50 mg/kg, 500 mg/mL solution X (5.00% ethanol, 1.91% poloxamer 188), n = 3, read-out: AUC0-672 h): 152 ± 23 µM·h
- AUC(0-t) (male Wistar Han rats, single SC 50 mg/kg, 500 mg/mL solution X (5.00% ethanol, 1.91% poloxamer 188), n = 3, read-out: AUC0-1008 h): 244 ± 29 µM·h
- AUC(0-t) (male Wistar Han rats, single SC 50 mg/kg, 500 mg/mL solution X (5.00% ethanol, 1.91% poloxamer 188), n = 3, read-out: AUC0-1344 h): 329 ± 35 µM·h
- AUC(0-t) (male Wistar Han rats, single SC 50 mg/kg, 500 mg/mL solution X (5.00% ethanol, 1.91% poloxamer 188), n = 3, read-out: AUC0-1680 h): 416 ± 47 µM·h
- AUC(0-t) (male Wistar Han rats, single SC 50 mg/kg, 500 mg/mL solution X (5.00% ethanol, 1.91% poloxamer 188), n = 3, read-out: AUC0-2352 h): 549 ± 64 µM·h
- AUC(0-t) (male Wistar Han rats, single SC 50 mg/kg, 500 mg/mL solution X (5.00% ethanol, 1.91% poloxamer 188), n = 3, read-out: AUC0-3024 h): 659 ± 80 µM·h
- AUC(0-t) (male Wistar Han rats, single SC 50 mg/kg, 500 mg/mL solution X (5.00% ethanol, 1.91% poloxamer 188), n = 3, read-out: AUC0-3696 h): 761 ± 84 µM·h
- AUC(0-t) (male Wistar Han rats, single SC 50 mg/kg, 500 mg/mL solution X (5.00% ethanol, 1.91% poloxamer 188), n = 3, read-out: AUC0-4704 h): 806 ± 83 µM·h
- Cmax (n = 3 rats, SC 50 mg/kg, solution R, 400 mg/mL): 370 ± 65 nM
- AUC(0-t) (n = 3 rats, SC 50 mg/kg, solution R, 400 mg/mL, read-out: AUC0-24h): 3.02 ± 0.65 µM·h
- AUC(0-t) (n = 3 rats, SC 50 mg/kg, solution R, 400 mg/mL, read-out: AUC0-168h): 25.2 ± 5.3 µM·h
- AUC(0-t) (n = 3 rats, SC 50 mg/kg, solution R, 400 mg/mL, read-out: AUC0-336h): 60.6 ± 8.3 µM·h
- AUC(0-t) (n = 3 rats, SC 50 mg/kg, solution R, 400 mg/mL, read-out: AUC0-672h): 170 ± 5.4 µM·h
- AUC(0-t) (n = 3 rats, SC 50 mg/kg, solution R, 400 mg/mL, read-out: AUC0-1008h): 287 ± 32 µM·h
